According to PubChem BioAssay AID1259407 (Chemical Carcinogenesis Research Information System (CCRIS), 2018):
The source made the active and inactive calls. The rule behind the calls is not given here.

Test system: CCRIS mutagenicity, Ames/micronucleus/aberration tests
Assay: CCRIS mutagenicity studies
[1] = Test System: AMES SALMONELLA TYPHIMURIUM, Strain/Indicator: TA100, Metabolic Activation: RAT, LIVER, S-9, AROCLOR 1254, Method: STANDARD PLATE

In the case of `CC1(C)C(C=C(Cl)Cl)C1C(=O)OC(C#N)c1ccc(F)c(Oc2ccccc2)c1` (configuration not stated), the mutagenic call (End Point: In vitro chromosomal aberrations, Test System: Human lymphocytes, Metabolic Activation: Male Sprague-Dawley rat, liver, S-9, Aroclor 1254) is reported as “inactive; negative”, the mutagenic call (End Point: In vitro chromosomal aberrations, Test System: Human lymphocytes, Metabolic Activation: None) is reported as “inactive; negative” and the mutagenic call (End Point: In vitro chromosomal aberrations, Test System: Human lymphocytes, Metabolic Activation: S-9 (No details given by DPR evaluator)) is reported as “inactive; negative”. For the same compound, the mutagenic call (End Point: In vivo micronucleus, Test System: Bone marrow erythrocytes, Strain/Indicator: Bor:NMRI (SPF Han)/ Female, Species: Mouse, Route: Oral) was “inactive; negative (no significant effect on frequency of micronucleated polychromatic ery”, the mutagenic call (End Point: In vivo micronucleus, Test System: Bone marrow erythrocytes, Strain/Indicator: Bor:NMRI (SPF Han)/ Male, Species: Mouse, Route: Oral) was “inactive; negative (no significant effect on frequency of micronucleated polychromatic ery” and the mutagenic call (Test System: Ames Salmonella typhimurium, Strain/Indicator: TA98, Metabolic Activation: None, Method: Plate incorporation) was “inactive; negative”. For the same compound, the mutagenic call (Test System: Ames Salmonella typhimurium, Strain/Indicator: TA98, Metabolic Activation: S-9 (Additional details not given by DPR evaluator), Method: Plate incorporation) was “inactive; negative”, the mutagenic call (Test System: Ames Salmonella typhimurium, Strain/Indicator: TA100, Metabolic Activation: None, Method: Plate incorporation) was “inactive; negative” and the mutagenic call (Test System: Ames Salmonella typhimurium, Strain/Indicator: TA100, Metabolic Activation: S-9 (Additional details not given by DPR evaluator), Method: Plate incorporation) was “inactive; negative”. For the same compound, the mutagenic call (Test System: Ames Salmonella typhimurium, Strain/Indicator: TA1535, Metabolic Activation: None, Method: Plate incorporation) was “inactive; negative”, the mutagenic call (Test System: Ames Salmonella typhimurium, Strain/Indicator: TA1535, Metabolic Activation: S-9 (Additional details not given by DPR evaluator), Method: Plate incorporation) was “inactive; negative” and the mutagenic call (Test System: Ames Salmonella typhimurium, Strain/Indicator: TA1537, Metabolic Activation: None, Method: Plate incorporation) was “inactive; negative”. The mutagenic call (Test System: Ames Salmonella typhimurium, Strain/Indicator: TA1537, Metabolic Activation: S-9 (Additional details not given by DPR evaluator), Method: Plate incorporation) was “inactive; negative”, the mutagenic call (Test System: CHO-HGPRT, Strain/Indicator: CHO-Ki-BH4 cells, Metabolic Activation: None, Method: Forward mutation assay) was “inactive; negative” and the mutagenic call (Test System: CHO-HGPRT, Strain/Indicator: CHO-Ki-BH4 cells, Metabolic Activation: S-9 (No additional details presented by DPR evaluator), Method: Forward mutation assay) was “inactive; negative”. The mutagenic call (Test System: UDS Rat hepatocytes, Strain/Indicator: Thymidine incorporation, Metabolic Activation: None, Method: Autoradiography) was “inactive; negative”.
`CC(C)(C)NCC(O)c1ccc(O)c(NC(N)=O)c1` (configuration not stated) was tested, and the mutagenic call (Test System: AMES SALMONELLA TYPHIMURIUM, Strain/Indicator: TA98, Metabolic Activation: NONE, Method: STANDARD PLATE) was “inactive; negative”, the mutagenic call (Test System: AMES SALMONELLA TYPHIMURIUM, Strain/Indicator: TA98, Metabolic Activation: RAT, LIVER, S-9, AROCLOR 1254, Method: STANDARD PLATE) was “inactive; negative” and the mutagenic call (Test System: AMES SALMONELLA TYPHIMURIUM, Strain/Indicator: TA100, Metabolic Activation: NONE, Method: STANDARD PLATE) was “inactive; negative”. For the same compound, the mutagenic call [1] was “inactive; negative”.
`OCC(Br)CBr` (configuration not stated) was tested, and the mutagenic call (Test System: AMES SALMONELLA TYPHIMURIUM, Strain/Indicator: TA98, Metabolic Activation: HAMSTER, LIVER, S-9, AROCLOR 1254 (10%), Method: PREINCUBATION) was “active; positive”, the mutagenic call (Test System: AMES SALMONELLA TYPHIMURIUM, Strain/Indicator: TA98, Metabolic Activation: NONE, Method: PREINCUBATION) was “active; positive” and the mutagenic call (Test System: AMES SALMONELLA TYPHIMURIUM, Strain/Indicator: TA98, Metabolic Activation: RAT, LIVER, S-9, AROCLOR 1254 (10%), Method: PREINCUBATION) was “active; positive”. For the same compound, the mutagenic call (Test System: AMES SALMONELLA TYPHIMURIUM, Strain/Indicator: TA100, Metabolic Activation: HAMSTER, LIVER, S-9, AROCLOR 1254 (10%), Method: PREINCUBATION) was “active; positive”, the mutagenic call (Test System: AMES SALMONELLA TYPHIMURIUM, Strain/Indicator: TA100, Metabolic Activation: NONE, Method: PREINCUBATION) was “active; positive” and the mutagenic call (Test System: AMES SALMONELLA TYPHIMURIUM, Strain/Indicator: TA100, Metabolic Activation: RAT, LIVER, S-9, AROCLOR 1254 (10%), Method: PREINCUBATION) was “active; positive”. The mutagenic call [1] was “active; positive”, the mutagenic call (Test System: AMES SALMONELLA TYPHIMURIUM, Strain/Indicator: TA102, Metabolic Activation: S-9, Method: STANDARD PLATE) was “active; positive” and the mutagenic call (Test System: AMES SALMONELLA TYPHIMURIUM, Strain/Indicator: TA1535, Metabolic Activation: HAMSTER, LIVER, S-9, AROCLOR 1254 (10%), Method: PREINCUBATION) was “active; positive”. For the same compound, the mutagenic call (Test System: AMES SALMONELLA TYPHIMURIUM, Strain/Indicator: TA1535, Metabolic Activation: NONE, Method: PREINCUBATION) was “active; positive”, the mutagenic call (Test System: AMES SALMONELLA TYPHIMURIUM, Strain/Indicator: TA1535, Metabolic Activation: RAT, LIVER, S-9, AROCLOR 1254 (10%), Method: PREINCUBATION) was “active; positive” and the mutagenic call (Test System: AMES SALMONELLA TYPHIMURIUM, Strain/Indicator: TA1535, Metabolic Activation: RAT, LIVER, S-9, AROCLOR 1254, Method: STANDARD PLATE) was “active; positive”. For the same compound, the mutagenic call (Test System: AMES SALMONELLA TYPHIMURIUM, Strain/Indicator: TA1537, Metabolic Activation: HAMSTER, LIVER, S-9, AROCLOR 1254 (10%), Method: PREINCUBATION) was “inactive; negative”, the mutagenic call (Test System: AMES SALMONELLA TYPHIMURIUM, Strain/Indicator: TA1537, Metabolic Activation: NONE, Method: PREINCUBATION) was “inactive; negative” and the mutagenic call (Test System: AMES SALMONELLA TYPHIMURIUM, Strain/Indicator: TA1537, Metabolic Activation: RAT, LIVER, S-9, AROCLOR 1254 (10%), Method: PREINCUBATION) was “inactive; negative”. For the same compound, the mutagenic call (Test System: AMES SALMONELLA TYPHIMURIUM, Strain/Indicator: TA2638, Metabolic Activation: S-9, Method: STANDARD PLATE) was “active; positive”, the mutagenic call (Test System: E. COLI, Strain/Indicator: WP2 (PKM101), Metabolic Activation: S-9, Method: STANDARD PLATE) was “active; positive” and the mutagenic call (Test System: E. COLI, Strain/Indicator: WP2 UVRA (PKM101), Metabolic Activation: S-9, Method: STANDARD PLATE) was “active; positive”. For the same compound, the mutagenic call (Test System: MOUSE LYMPHOMA, Strain/Indicator: L5178Y (TK+/TK-), Metabolic Activation: NONE, Method: SUSPENSION/PLATE) was “active; positive”.
With `O=C(CCl)C(Cl)Cl` the mutagenic call (Test System: AMES SALMONELLA TYPHIMURIUM, Strain/Indicator: TA100, Metabolic Activation: NONE, Method: FLUCTUATION TEST) was “active; positive” and the mutagenic call (Test System: AMES SALMONELLA TYPHIMURIUM, Strain/Indicator: TA100, Metabolic Activation: RAT, LIVER, S-9, AROCLOR 1254, Method: FLUCTUATION TEST) was “inactive; negative”.
With `CCC(O)CN(CC(O)CC)N=O` (configuration not stated) the mutagenic call (Test System: CHINESE HAMSTER V-79, Strain/Indicator: V-79/OUABAIN, Metabolic Activation: HAMSTER, HEPATOCYTES, Method: CELL-MEDIATED) was “inactive; negative”.
